# Molecular target: activated ERK2 (Homo sapiens (Human), UniProt P28482)
# Experiment: Activated ERK2 (20 pM) Kinase Assay (AlphaScreen, ERKtide phosphorylation)
# Assay type: biochemical
# Conditions: 0.02 nM ERK2, 400 nM ERKtide peptide, 35 μM ATP, 30 min preincubation
# Experimental: Activated ERK2 (20 pM) Kinase Assay:
# The assay was carried out in 20 mM HEPES [pH 7.5], 5 mM MgCl2, 1 mM DTT, 0.01% Tween-20, 0.05% BSA using 0.02 nM ERK2, 400 nM ERKtide peptide and 35 μM ATP (all concentrations are final in the reaction) in a total volume of 10.25 μL. […] Compound dilution series were prepared in 100% DMSO. ERK2 was preincubated with compounds for 30 minutes at ambient temperature. Reaction was initiated by addition of a substrate cocktail of ERKtide peptide and ATP and was allowed to proceed for 4 hours at ambient temperature. Reaction was terminated by addition of 10 μL of a 2× stop buffer consisting of 100 mM Tris-Cl [pH 7.5], 25 mM EDTA, 0.01% Tween 20, 20 μg/mL of AlphaScreen Protein A Acceptor Beads, 20 μg/mL of Streptavidin Donor Beads (PerkinElmer, Waltham, Mass.), and 1:1000 dilution phospho-EGF Receptor (Thr669) antibody (Cat #8808, Cell Signaling Technology, Danvers, Mass.). Terminated reactions were read, after overnight incubation in the dark, on an EnVision Multilabel Plate Reader (PerkinElmer, Waltham, Mass.), with excitation and emission wavelengths set to 680 nm and 570 nm, respectively. IC50 values were determined using a four-parameter fit.
# Sequence of activated ERK2 (P28482 whole entry): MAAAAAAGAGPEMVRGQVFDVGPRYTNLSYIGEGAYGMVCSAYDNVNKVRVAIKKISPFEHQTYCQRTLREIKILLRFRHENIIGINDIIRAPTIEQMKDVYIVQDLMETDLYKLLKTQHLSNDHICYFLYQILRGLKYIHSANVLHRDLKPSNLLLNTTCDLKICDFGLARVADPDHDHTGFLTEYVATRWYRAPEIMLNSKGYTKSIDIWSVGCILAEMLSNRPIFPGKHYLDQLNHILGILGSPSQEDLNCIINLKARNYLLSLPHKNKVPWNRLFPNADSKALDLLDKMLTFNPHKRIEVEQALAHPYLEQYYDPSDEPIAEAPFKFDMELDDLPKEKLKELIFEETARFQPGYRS
row,IC50 [nM],SMILES
1,0.031,Cn1nncc1-c1cnc(N)c(-c2ccc(C(=O)N[C@H](CO)c3cc(F)cc(Br)c3)c(F)c2)c1 [Example 265]
2,0.0208,"Nc1ncc(C2CCOCC2)nc1-c1ccc(C(=O)N[C@H](CO)c2cc(F)cc(C(F)F)c2)c(F)c1 [Example 335, (S)-4-(3-amino-6-(tetrahydro-2H-pyran-4-yl)pyrazin-2-yl)-N-(1-(3-(difluoromethyl)-5-fluorophenyl)-2-hydroxyethyl)-2-fluorobenzamide]"
3,187,"Nc1ncc([C@H]2CC[C@H](O)CC2)nc1-c1ccc(C(=O)N[C@H](CO)c2cccc(C(F)(F)F)c2)c(F)c1 [Example 340, 4-(3-amino-6-((1r,4S)-4-hydroxy-cyclohexyl)pyrazin-2-yl)-2-fluoro-N-((S)-2-hydroxy-1-(3-(trifluoromethyl)phenyl)ethyl) benzamide]"
4,0.0205,"CNC[C@@H](NC(=O)c1ccc(-c2nc([C@@H]3CC[C@@H](O)[C@H](F)C3)cnc2N)cc1F)c1cc(F)cc(I)c1 [Example 358, 4-(3-amino-6-((1R,3R,4R)-3-fluoro-4-hydroxy-cyclohexyl)pyrazin-2-yl)-2-fluoro-N-((S)-1-(3-fluoro-5-iodophenyl)-2-(methylamino)ethyl)benzamide]"
5,0.0933,Cn1nncc1-c1cnc(N)c(-c2ccc(C(=O)N[C@H](CO)c3cccc(C(F)F)c3)c(F)c2)c1 [Example 301]
6,157,"Cn1cc(-c2cnc(N)c(-c3ccc(C(=O)N[C@H](CO)C4CCCCC4)c(F)c3)c2)cn1 [Example 244, (S)-4-(2-amino-5-(1-methyl-1H-pyrazol-4-yl)pyridin-3-yl)-N-(1-cyclohexyl-2-hydroxyethyl)-2-fluorobenzamide]"
7,0.0823,CNC[C@@H](NC(=O)c1ccc(-c2nc([C@H]3CC[C@H](O)C(F)(F)C3)cnc2N)cc1F)c1cc(F)cc(Br)c1 [Example 458]
8,0.339,"Nc1ncc([C@H]2CC[C@H](O)CC2)cc1-c1ccc(C(=O)N[C@H](CO)c2cccc(Cl)c2)c(F)c1 [Example 442, 4-(2-amino-5-((1r,4S)-4-hydroxy-cyclohexyl)pyridin-3-yl)-N-((S)-1-(3-chlorophenyl)-2-hydroxyethyl)-2-fluorobenzamide]"
9,1.28,"C[C@]1(O)CC[C@H](c2cnc(N)c(-c3ccc(C(=O)N[C@H](CO)c4cccc(Cl)c4)c(F)c3)n2)CC1 [Example 106, 4-(3-amino-6-((1r,4S)-4-hydroxy-4-methylcyclohexyl)pyrazin-2-yl)-N-((S)-1-(3-chlorophenyl)-2-hydroxyethyl)-2-fluorobenzamide]"
10,0.0312,"Cc1nn(C(F)F)cc1-c1cnc(N)c(-c2ccc(C(=O)N[C@H](CO)c3cc(F)cc(C(F)F)c3)c(F)c2)c1 [Example 274, (S)-4-(2-amino-5-(1-(difluoromethyl)-3-methyl-1H-pyrazol-4-yl)pyridin-3-yl)-N-(1-(3-(difluoromethyl)-5-fluorophenyl)-2-hydroxyethyl)-2-fluorobenzamide]"
11,0.04,"NC[C@@H](NC(=O)c1ccc(-c2nc(C3CCCC(O)C3)cnc2N)cc1F)c1cccc(Cl)c1 (single isomer, unassigned) [Example 372]"
12,0.238,"CC(=O)NC[C@@H](NC(=O)c1ccc(-c2nc([C@H]3CC[C@H](O)CC3)cnc2N)cc1F)c1cccc(Cl)c1 [Example 405, N-((S)-2-acetamido-1-(3-chlorophenyl)ethyl)-4-(3-amino-6-((1r,4S)-4-hydroxy-cyclohexyl)pyrazin-2-yl)-2-fluorobenzamide]"
13,0.0127,"Nc1ncc(C2CCOCC2)nc1-c1ccc(C(=O)N[C@H](CO)c2cc(F)cc(Br)c2)c(F)c1 [Example 259, (S)-4-(3-amino-6-(tetrahydro-2H-pyran-4-yl)pyrazin-2-yl)-N-(1-(3-bromo-5-fluorophenyl)-2-hydroxyethyl)-2-fluorobenzamide]"
14,0.815,"C[C@@H](O)[C@@H](NC(=O)c1ccc(-c2cc(-c3cnn(C)c3)cnc2N)cc1F)c1cccc(Cl)c1 [Example 332, 4-(2-amino-5-(1-methyl-1H-pyrazol-4-yl)pyridin-3-yl)-N-((1S,2R)-1-(3-chlorophenyl)-2-hydroxypropyl)-2-fluorobenzamide]"
15,0.924,"Nc1ncc([C@@H]2CC[C@H](O)[C@H](F)C2)nc1-c1ccc(C(=O)N[C@H](CO)c2cc(F)cc(Br)c2)c(F)c1 [Example 185, 4-(3-amino-6-((1R,3R,4S)-3-fluoro-4-hydroxycyclohexyl)pyrazin-2-yl)-N—((S)-1-(3-bromo-5-fluorophenyl)-2-hydroxyethyl)-2-fluorobenzamide]"
16,0.0229,"Nc1ncc([C@H]2CC[C@H](O)CC2)nc1-c1ccc(C(=O)N[C@H](CO)c2cc(F)cc(CF)c2)c(F)c1 [Example 177, 4-(3-amino-6-((1r,4S)-4-hydroxycyclohexyl)pyrazin-2-yl)-2-fluoro-N—((S)-1-(3-fluoro-5-(fluoromethyl)phenyl)-2-hydroxyethyl)benzamide]"
17,0.0261,"Nc1ncc([C@@H]2CC[C@@H](O)C(F)(F)C2)nc1-c1ccc(C(=O)N[C@H](CO)c2cc(F)cc(Br)c2)c(F)c1 [Example 459, 4-(3-amino-6-((1R,4R)-3,3-difluoro-4-hydroxy-cyclohexyl)pyrazin-2-yl)-2-fluoro-N-((S)-1-(3-fluoro-5-bromophenyl)-2-hydroxyethyl) benzamide]"
18,0.0701,"Nc1ncc([C@H]2CC[C@@H](O)CC2)cc1-c1ccc(C(=O)N[C@H](CO)c2cccc(Cl)c2)c(F)c1 [Example 440, 4-(2-amino-5-((1s,4R)-4-hydroxy-cyclohexyl)pyridin-3-yl)-N-((S)-1-(3-chlorophenyl)-2-hydroxyethyl)-2-fluorobenzamide]"
19,2.02,"Nc1ncc(C(=O)N2CC(O)C2)nc1-c1ccc(C(=O)N[C@H](CO)c2cc(F)cc(Br)c2)c(F)c1 [Example 476, (S)-4-(3-amino-6-(3-hydroxyazetidine-1-carbonyl)pyrazin-2-yl)-N-(1-(3-bromo-5-fluorophenyl)-2-hydroxyethyl)-2-fluorobenzamide]"
20,0.0895,"NC[C@@H](NC(=O)c1ccc(-c2nc(C3CCCC(O)C3)cnc2N)cc1F)c1cccc(Cl)c1 (single isomer, unassigned) [Example 368]"
21,0.0139,"Nc1ncc([C@H]2CC[C@H](O)[C@@H](F)C2)nc1-c1ccc(C(=O)N[C@H](CO)c2cc(F)cc(I)c2)c(F)c1 [Example 189, 4-(3-amino-6-((1S,3S,4S)-3-fluoro-4-hydroxycyclohexyl)pyrazin-2-yl)-2-fluoro-N—((S)-1-(3-fluoro-5-iodophenyl)-2-hydroxyethyl)benzamide]"
22,0.0645,"C[C@@H](O)[C@@H](NC(=O)c1ccc(-c2nc(C3CCOCC3)cnc2N)cc1F)c1cccc(Cl)c1 [Example 331, 4-(3-amino-6-(tetrahydro-2H-pyran-4-yl)pyrazin-2-yl)-N-((1S,2R)-1-(3-chlorophenyl)-2-hydroxypropyl)-2-fluorobenzamide]"
23,0.137,"Nc1ncc([C@H]2CC[C@@H](O)[C@@H](O)C2)nc1-c1ccc(C(=O)N[C@H](CO)c2cc(F)cc(I)c2)c(F)c1 [Example 464, 4-(3-amino-6-((1S,3S,4R)-3,4-dihydroxy-cyclohexyl)pyrazin-2-yl)-2-fluoro-N-((S)-1-(3-fluoro-5-iodophenyl)-2-hydroxyethyl) benzamide]"
24,0.0242,"Nc1ncc(C2CCOCC2)nc1-c1ccc(C(=O)N[C@H](CO)c2cc(F)cc(CCl)c2)c(F)c1 [Example 390, (S)-4-(3-amino-6-(tetrahydro-2H-pyran-4-yl)pyrazin-2-yl)-N-(1-(3-(chloromethyl)-5-fluorophenyl)-2-hydroxyethyl)-2-fluorobenzamide]"
25,0.0745,"Cc1c(-c2cnc(N)c(-c3ccc(C(=O)N[C@H](CO)c4cccc(C(F)F)c4)c(F)c3)c2)cnn1C(F)F [Example 275, (S)-4-(2-amino-5-(1-(difluoromethyl)-5-methyl-1H-pyrazol-4-yl)pyridin-3-yl)-N-(1-(3-(difluoromethyl)phenyl)-2-hydroxyethyl)-2-fluorobenzamide]"
26,84.9,"Nc1ncc(C2CCOCC2)nc1-c1ccc(C(=O)N[C@@H](C#CC2CC2)CO)c(F)c1 [Example 321, (S)-4-(3-amino-6-(tetrahydro-2H-pyran-4-yl)pyrazin-2-yl)-N-(4-cyclopropyl-1-hydroxybut-3-yn-2-yl)-2-fluorobenzamide]"
27,0.0463,"CNC[C@@H](NC(=O)c1ccc(-c2nc([C@H]3CC[C@H](O)CC3)cnc2N)cc1F)c1cccc(Cl)c1 [Example 401, 4-(3-amino-6-((1r,4S)-4-hydroxy-cyclohexyl)pyrazin-2-yl)-N-((S)-1-(3-chlorophenyl)-2-(methylamino)ethyl)-2-fluorobenzamide]"
28,0.105,"Nc1ncc(C2CCC(F)(F)CC2)nc1-c1ccc(C(=O)N[C@H](CO)c2cccc(Cl)c2)c(F)c1 [Example 435, (S)-4-(3-amino-6-(4,4-difluoro-cyclohexyl)pyrazin-2-yl)-N-(1-(3-chlorophenyl)-2-hydroxyethyl)-2-fluorobenzamide]"

row,SMILES,IC50 [nM]
1,"NC[C@@H](NC(=O)c1ccc(-c2nc([C@H]3CC[C@H](O)CC3)cnc2N)cc1F)c1cc(F)cc(Br)c1 [Example 342, N-((S)-2-amino-1-(3-bromo-5-fluorophenyl)ethyl)-4-(3-amino-6-((1r,4S)-4-hydroxycyclohexyl)pyrazin-2-yl)-2-fluorobenzamide]",0.0173
